From patent publication US11970712B2, “Midbrain dopamine (DA) neurons for engraftment” (MEMORIAL SLOAN-KETTERING CANCER CENTER, priority 2011, dated 2024)

Key:
hESC = assay: Immunocytochemistry, percentage of marker positive cells in differentiating cultures; type: cell-based, human
Method: (§1) Immunohistochemistry: Cells were fixed in 4% PFA and blocked with 1% bovine serum albumin (BSA) with 0.3% Triton. Brain tissue sections were washed in cold PBS and processed similarly. Primary antibodies were diluted in 1-5% BSA or Normal Goat Serum and incubated according to manufacturer recommendations. A comprehensive list of antibodies and sources is provided as Table 6. Appropriate Alexa488, Alexa555 and Alexa647-conjugated secondary antibodies (Molecular Probes, Carlsbad, California) were used with 4′,6-diamidino-2-phenylindole (DAPI) nuclear counterstain (Thermo Fisher, Rockford, Illinois). For some analyses biotinylated secondary antibodies were used followed by visualization via DAB (3,3′-Diaminobenzidine) chromogen.
Cell Counts and Stereological Analyses. The percentages of marker positive cells at the floor plate (day 11) FIG. 1, midbrain dopamine neuron precursor (day 25), FIG. 2 and mature DA neuron stages (day 50 or later) FIGS. 3 and 11, were determined in samples derived from at least 3 independent experiments each. Images for quantification were selected in a uniform random manner and each image was scored first for the number of DAPI-positive nuclei, followed by counting the number of cells expressing the marker of interest. Data are presented as mean±SEM. Quantification of human cells (identified with anti-hNA) and TH+ neurons within grafts was performed on every tenth section where a graft was identifiable. Cell counts and graft volume was determined using the optical fractionator's probe and the Cavalieri estimator using the Stereo Investigator software (MBF bioscience, Vermont) as described previously in Tabar, et al. Nat. Biotechnol. 23:601-606 (2005), herein incorporated by reference. Data are presented as estimated total cell number and total graft volume+/−standard error of means (SEM).
as §1, with “chromogen. HPLC” for “chromogen.”
Analysis. Reversed-phase HPLC with electrochemical detection for measuring levels of dopamine, Homovanillic acid (HVA) and DOPAC (3,4-Dihydroxy-Phenylacetic Acid) was performed as described previously (Roy, et al. Nature Med. 12:1259-1268 (2006); Studer, et al. Brain Res. Bull. 41:143-150 (1996), all of which are herein incorporated by reference). Culture samples were collected in perchloric acid at day 65 of differentiation. For some experiments DA was measured directly in the medium using the same detection system but following aluminum extraction of dopamine and its metabolites using a commercially available kit as described previously (Studer, et al. Brain Res. Bull. 41:143-150 (1996), herein incorporated by reference). […]

rodent GSK3β homologs = settings: cited from earlier work
rosette stage cells = assay: Rosette-based DA neuron induction culture; type: cell-based, human; settings: concentration suitable for patterning floor plate cells
From the text: Both protocols used dual-SMAD inhibition to accelerate neural fate acquisition. LDN was used for BMP inhibition in the floor plate protocol while the traditional noggin induction was used for rosette cultures. The abbreviations are: LDN: LDN-193189, SB: SB431542, SHH (purmorphamine+SHH C25II), FGF8: FGF8, BAGCT: BDNF+ascorbic acid+GDNF+dbcAMP+TGFβ3. SHH/FGF8 in the rosette protocol used SHH C25I alone in the absence of purmorphamine following the initial recommendation for patterning of rosette-derived DA neuron cultures. […] BASF: BDNF+ascorbic acid+SHH/FGF8.
For rosette-based DA neuron induction previously described protocols were followed in part (Perrier, et al. Proc Natl Acad Sci USA 101:12543-8 (2004), herein incoropoated by reference) with at least one exception where dual-SMAD inhibition was used to accelerate the initial neural induction step. In brief, hESCs were induced towards neural fate by coculture with irradiated MS5 cells in KSR supplemented with SB431542 and Noggin (250 ng/ml (ranging in concentration from 10-1000 ng/ml); R&D), from day 2-8 and SHH+FGF8 from day 6-11 of differentiation. After 11 days in KSR, neural rosettes were manually isolated and cultured (P1 stage) in N2 medium supplemented with SHH, FGF8, BDNF and AA as described previously (Perrier, et al. Proc Natl Acad Sci USA 101:12543-8 (2004), herein incorporated by reference). […]

[1] = tested on: PD-iPSC and control iPSC derived cells; assay: Cell viability assay with alamar-blue, dose response for toxin challenge; type: cell-based, human; settings: 48 hrs, 5 and 10 uM, day 60
From the text: (§2) Note: this assay tests for overall cell death while the most dramatic effects were observed specifically in DA neurons (see FIG. 14). Therefore, alamar blue based quantification will likely underestimate the extent of the differential effect observed on DA neuron lineages.
as §2, with “Exemplary quantification of cell viability—dose response assay for toxin challenge. […] Note:” for “Note:”
as §2, with “Exemplary quantification of cell viability-dose response assay for toxin challenge. […] Note:” for “Note:”

[2] = tested on: PINK1 mutant PD-iPSC derived TH+ DA neurons; assay: Toxin challenge, TH immunocytochemistry; type: cell-based, human
Method: (§3) PD-iPSC derived TH+ DA neurons derived via the floor-plate based protocols of the present inventions were more vulnerable to toxin challenge (valinomycin: mitochondria ionophore, 5 uM, 48 hr) than control-iPSC derived cells. […] G-H) low power images of immunocytochemistry for Tuj1 (red) and TH (green) by floor-plate based protocol at day 60 of differentiation: PD-iPSC of normal (G), versus toxin challenge (H) conditions and control iPSC of normal (I), versus toxin challenge (J) conditions. K-N) low power images of immunocytochemistry for Tuj1 (red) and TH (green) by MS5 based protocol at day 60 of differentiation: PD-iPSC of normal (K), versus toxin challenge (L) conditions and control iPSC of normal (M), versus toxin challenge (N) conditions.
(§4) E. DA neurons derived from genetic PD-iPS cells are more vulnerable to toxic stimulation. FIG. 24-25. PD-iPSC derived TH+DA neurons derived via floor-plate based protocol were more vulnerable to toxin challenge (valinomycin: mitochondria ionophore, 5 uM (ranging in concentration from 1-10 uM), 48 hr) than control-iPSC derived cells. […] Normal condition both of PD- and control-iPSC derived cultures obtained via MS5 based protocol (D, PD-iPSC derived cells shown), TH+ neurons following toxin challenge in PD-iPSC (E), and control-iPSC derived cultures (F) obtained via MS5 protocol. G-H) low power images of immunocytochemistry for Tuj1 (red) and TH (green) by floor-plate based protocol at day 60 of differentiation: PD-iPSC of normal (G), versus toxin challenge (H) conditions and control iPSC of normal (I), versus toxin challenge (J) conditions. K-N) low power images of immunocytochemistry for Tuj1 (red) and TH (green) by MS5 based protocol at day 60 of differentiation: PD-iPSC of normal (K), versus toxin challenge (L) conditions and control iPSC of normal (M), versus toxin challenge (N) conditions. F.
(§5) Exemplary DA neurons derived from PINK1 mutant PD-iPSC are more vulnerable to toxic stimulation. […]

[3] = tested on: control-iPSC derived TH+ DA neurons; assay: Toxin challenge, TH immunocytochemistry; type: cell-based, human; settings: 5 uM, 48 hr, floor-plate protocol, day 60
Method: as §3, §4, §5

Cc1c[nH]c(-c2cnc(NCCNc3ccc(C#N)cn3)nc2-c2ccc(Cl)cc2Cl)n1 [CHIR99021, 6-(2-(4-(2,4-dichlorophenyl)-5-(4-methyl-1H-imidazol-2-yl)pyrimidin-2-ylamino)ethylamino)nicotinonitrile]
potency at inducing LMX1A expression compared with recombinant Wnt3A or Wnt1 (hESC): more potent | timing of exposure giving maximum LMX1A induction (hESC): day 3-11 | LMX1A induction in FOXA2+ floor plate precursors (hESC; day 11): induced LMX1A | co-expression of FOXA2/LMX1A (hESC; day 11): induced co-expression | IC50 against rodent GSK3β homologs (rodent GSK3β homologs): nanomolar

c1ccc2c(Oc3nc(Nc4ccc(N5CCOCC5)cc4)c4ncn(C5CCCCC5)c4n3)cccc2c1 [Purmorphamine]
toxicity at rosette stage (rosette stage cells): shows toxicity

CC(C)[C@@H]1NC(=O)[C@H](C)OC(=O)[C@@H](C(C)C)NC(=O)[C@@H](C(C)C)OC(=O)[C@H](C(C)C)NC(=O)[C@H](C)OC(=O)[C@@H](C(C)C)NC(=O)[C@@H](C(C)C)OC(=O)[C@H](C(C)C)NC(=O)[C@H](C)OC(=O)[C@@H](C(C)C)NC(=O)[C@@H](C(C)C)OC1=O [valinomycin]
cell survival PD-iPSC versus control iPSC [1]: differential cell survival | degeneration of TH+ DA neurons ([2]; 5 uM, 48 hr, floor-plate protocol, day 60): nearly complete degeneration | vulnerability of PD- versus control-derived TH+ neurons ([2]; classic MS5 based protocol): did not show differential vulnerability | degeneration of TH+ DA neurons [3]: partially degenerated

B1: FGF8: Fibroblast growth factor 8 (protein, UniProt P55075 23-233, looked up)
Fibroblast growth factor 8: QEGPGRGPALGRELASLFRAGREPQGVSQQHVREQSLVTDQLSRRLIRTYQLYSRTSGKHVQVLANKRINAMAEDGDPFAKLIVETDTFGSRVRVRGAETGLYICMNKKGKLIAKSNGKGKDCVFTEIVLENNYTALQNAKYEGWYMAFTRKGRPRKGSKTRQHQREVHFMKRLPRGHHTTEQSLRFEFLNYPPFTRSLRGSQRTWAPEPR
co-expression of FOXA2/LMX1A (hESC; day 11): only marginal effects
